Laboratory results as given in article PMC9838390, “Discovery and biosynthesis of karnamicins as angiotensin converting enzyme inhibitors” (Nature Communications, 2023).
Where “and” joins values, the source holds several entries; their conditions need not be identical. Identical values can stand only once.

Tests used:
Type in all cases: biochemical, L. rhizosphaerae NEAU-A2
[1] = test system: KnmB2; assay: NADPH oxidation of KnmB2 and variants (340 nm)
Procedure: (§1) Hydrogen peroxide formation assay and NADPH oxidation
The hydrogen peroxide formed from KnmB1, KnmB2 and their variants were measured using the Hydrogen Peroxide Assay Kit (Beyotime Industrial Co. Ltd, Shanghai, China)4-5. 5–100 µL of enzyme reaction mixture was added to 100 µL of working reagent (S0038-1). The mixture was incubated for 30 min at 25 °C, at which time the absorbance at 560 nm was measured by NanoDrop 2000c (Fisher Scientific). The level of H2O2 was calculated according to a standard concentration curve from standard […]
(§2) NADPH detection was carried out in the cuvette by NanoDrop 2000c (Fisher Scientific). NADPH signal at 340 nm was monitored in time using 6220 M–1 cm–1 as […]
(§3) Spectral data for new compounds […]
Reaction conditions: 50 mM Tris-HCl buffer (pH 7.5),
0.15 mM NADPH, and 2 μM KnmB1 or KnmB2. […]
μM KnmB1 or variants, or 0.1 mM substrate 24/32/36. (h) NADPH oxidation of KnmB2 and variants. (i) NADPH oxidation of KnmB2 and variants in the presence 24 or 32. (j) H2O2 generation for KnmB2 and variants in the presence 24 or 32. Reaction conditions (h-j) for KnmB2 and their variants: 50 mM Tris-HCl buffer (pH 7.5), 0.15 mM NADPH, 2 μM KnmB2 or variants, or 0.1 mM substrate 24/32. Values are the means ± SD of n = 3 independent experiments, except for KnmB2+24 (T = 40 min), KnmB2-N219D+24 (T = 4 min), KnmB2-Y215F+24 (T= 1 min and 3 min) in i and j, and KnmB2+32 (T= 8 min) in j (n = 2). Source data are provided as a Source Data file. […]

[2] = test system: KnmB2; assay: Hydrogen peroxide formation assay of KnmB2 and variants
Procedure: as §1
The hydrogen peroxide formed from KnmB1, KnmB2 and their variants were measured using the Hydrogen Peroxide Assay Kit (Beyotime Industrial Co. Ltd, Shanghai, China)4-5. 5–100 µL of enzyme reaction mixture was added to 100 µL of working reagent (S0038-1). The mixture was incubated for 30 min at 25 °C, at which time the absorbance at 560 nm was measured by NanoDrop 2000c (Fisher Scientific). […]
as §3
Supplementary Figure 131. H2O2 generation and NADPH oxidation for KnmB2, KnmB1 and their variants. (a) Hydrogen peroxide formation of KnmB2 and variants. […]
(1 picture or pasted object on this page, not shown here) […]
H2O2 generation for KnmB2 and variants in the presence 24 or 32. Reaction conditions (h-j) for KnmB2 and their variants: 50 mM Tris-HCl buffer (pH 7.5), 0.15 mM NADPH, 2 μM KnmB2 or variants, or 0.1 mM substrate 24/32. Values are the means ± SD of n = 3 independent experiments, except for KnmB2+24 (T = 40 min), KnmB2-N219D+24 (T = 4 min), KnmB2-Y215F+24 (T= 1 min and 3 min) in i and j, and KnmB2+32 (T= 8 min) in j (n = 2). Source data are provided as a Source Data file. […]

[3] = test system: KnmB1; assay: NADPH oxidation of KnmB1 and variants (340 nm); settings: KnmB1 + compound
Procedure: Hydrogen peroxide formation assay and NADPH oxidation […]
as §2, §3
Reaction conditions: 50 mM Tris-HCl buffer (pH 7.5), 0.15 mM NADPH, and 2 μM KnmB1 or KnmB2. (e) NADPH oxidation of KnmB1 and variants. (f) NADPH oxidation of KnmB1 in the presence 24/32/36. (g) NADPH oxidation of KnmB1 and variants in the presence 24. Reaction conditions (e-g) for KnmB1 and their variants: 50 mM Tris-HCl buffer (pH 7.5), 0.15 mM NADPH, and 6 μM KnmB1 or variants, or 0.1 mM substrate 24/32/36. […]
2 μM KnmB2 or variants, or 0.1 mM substrate 24/32. […]
Source data are provided as a Source Data file. […]

In the case of `COc1cc(C(N)=O)nc(-c2csc(CCCCC(C)C)n2)c1` [Compound 32], the “stimulation of the reaction of KnmB2 with NADPH” value ([1]; 0.15 mM NADPH, 2 μM KnmB2, 0.1 mM compound (Fig. S131i, j)) is reported as “could dramatically stimulate the reaction of KnmB2 with NADPH”, the “NADPH oxidation, average value” ([1]; KnmB2+32, Time 0) is reported as 0.0000 µM and the “NADPH oxidation, average value” ([1]; KnmB2+32, Time 1) is reported as 36.1736 µM. The “NADPH oxidation, average value” ([1]; KnmB2+32, Time 2) was 67.6313 µM, the “NADPH oxidation, average value” ([1]; KnmB2+32, Time 3) was 89.9250 µM and the “NADPH oxidation, average value” ([1]; KnmB2+32, Time 4) was 104.0193 µM. For the same compound, the “NADPH oxidation, average value” ([1]; KnmB2+32, Time 5) was 113.9871 µM, the “NADPH oxidation, average value” ([1]; KnmB2+32, Time 8) was 126.0986 µM and the “NADPH oxidation, average value” ([1]; KnmB2+32, Time 10) was 129.3140 µM. For the same compound, the “NADPH oxidation, average value” ([1]; KnmB2+32, Time 15) was 133.2797 µM, the “NADPH oxidation, average value” ([1]; KnmB2+32, Time 20) was 134.8875 µM and the “NADPH oxidation, average value” ([1]; KnmB2+32, Time 30) was 135.6377 µM. For the same compound, the “NADPH oxidation, average value” ([1]; KnmB2+32, Time 60) was 137.7278 µM, the “hydrogen peroxide formation of KnmB2 (absorbance UV λ=560 nm), average value” ([2]; Fig. S131a, 1 mM NADPH, 16 μM KnmB2, 0.1 mM compound, 30 °C, 3 h, average of 3) was 0.3257 and the “H2O2 generation, average value” ([2]; KnmB2+32, Time 0) was 0.0000 µM. The “H2O2 generation, average value” ([2]; KnmB2+32, Time 1) was 27.0071 µM, the “H2O2 generation, average value” ([2]; KnmB2+32, Time 2) was 45.8172 µM and the “H2O2 generation, average value” ([2]; KnmB2+32, Time 3) was 50.8645 µM. The “H2O2 generation, average value” ([2]; KnmB2+32, Time 4) was 59.9799 µM, the “H2O2 generation, average value” ([2]; KnmB2+32, Time 5) was 63.9929 µM and the “H2O2 generation, average value” ([2]; KnmB2+32, Time 8) was 70.1572 µM. For the same compound, the “H2O2 generation, average value” ([2]; KnmB2+32, Time 10) was 68.2817 µM, the “H2O2 generation, average value” ([2]; KnmB2+32, Time 15) was 68.3920 µM and the “H2O2 generation, average value” ([2]; KnmB2+32, Time 20) was 65.9649 µM. For the same compound, the “H2O2 generation, average value” ([2]; KnmB2+32, Time 30) was 69.8125 µM, the “H2O2 generation, average value” ([2]; KnmB2+32, Time 60) was 64.9169 µM and the “NADPH oxidation of KnmB1 in the presence of compound (replicates 1, 2, 3)” value (from here on “NADPH oxidation of KnmB1 … (replicates 1, 2, 3)”) ([3]; Time 0) was 0.0000 µM. For the same compound, the “NADPH oxidation of KnmB1 in the presence of compound, average value” (from here on “NADPH oxidation of KnmB1 … average value”) ([3]; Time 0) was 0.0000 µM, the “NADPH oxidation of KnmB1 … (replicates 1, 2, 3)” value ([3]; Time 1) was 1.5273 µM and 2.1061 µM and 2.0418 µM and the “NADPH oxidation of KnmB1 … average value” ([3]; Time 1) was 1.8918 µM. For the same compound, the “NADPH oxidation of KnmB1 … (replicates 1, 2, 3)” value ([3]; Time 2) was 1.8328 µM and 3.1029 µM and 1.2701 µM, the “NADPH oxidation of KnmB1 … average value” ([3]; Time 2) was 2.0686 µM and the “NADPH oxidation of KnmB1 … (replicates 1, 2, 3)” value ([3]; Time 3) was 2.5241 µM and 3.7621 µM and 2.2026 µM. The “NADPH oxidation of KnmB1 … average value” ([3]; Time 3) was 2.8296 µM, the “NADPH oxidation of KnmB1 … (replicates 1, 2, 3)” value ([3]; Time 4) was 3.7781 µM and 5.3698 µM and 2.4759 µM and the “NADPH oxidation of KnmB1 … average value” ([3]; Time 4) was 3.8746 µM. For the same compound, the “NADPH oxidation of KnmB1 … (replicates 1, 2, 3)” value ([3]; Time 5) was 4.0032 µM and 5.5627 µM and 2.3955 µM, the “NADPH oxidation of KnmB1 … average value” ([3]; Time 5) was 3.9871 µM and the “NADPH oxidation of KnmB1 … (replicates 1, 2, 3)” value ([3]; Time 8) was 4.4212 µM and 7.7974 µM and 3.6978 µM. The “NADPH oxidation of KnmB1 … average value” ([3]; Time 8) was 5.3055 µM, the “NADPH oxidation of KnmB1 … (replicates 1, 2, 3)” value ([3]; Time 10) was 5.8360 µM and 8.6174 µM and 5.4019 µM and the “NADPH oxidation of KnmB1 … average value” ([3]; Time 10) was 6.6184 µM. The “NADPH oxidation of KnmB1 … (replicates 1, 2, 3)” value ([3]; Time 15) was 7.9100 µM and 11.8971 µM and 10.3055 µM, the “NADPH oxidation of KnmB1 … average value” ([3]; Time 15) was 10.0375 µM and the “NADPH oxidation of KnmB1 … (replicates 1, 2, 3)” value ([3]; Time 20) was 9.0836 µM and 14.3891 µM and 16.4148 µM. For the same compound, the “NADPH oxidation of KnmB1 … average value” ([3]; Time 20) was 13.2958 µM, the “NADPH oxidation of KnmB1 … (replicates 1, 2, 3)” value ([3]; Time 30) was 13.7942 µM and 22.5402 µM and 24.0193 µM and the “NADPH oxidation of KnmB1 … average value” ([3]; Time 30) was 20.1179 µM. The “NADPH oxidation of KnmB1 … (replicates 1, 2, 3)” value ([3]; Time 40) was 17.5724 µM and 28.7299 µM and 26.9936 µM, the “NADPH oxidation of KnmB1 … average value” ([3]; Time 40) was 24.4319 µM and the “NADPH oxidation of KnmB1 … (replicates 1, 2, 3)” value ([3]; Time 60) was 24.1801 µM and 36.1576 µM and 36.4791 µM. The “NADPH oxidation of KnmB1 … average value” ([3]; Time 60) was 32.2722 µM.
